Data as given in ChEMBL document CHEMBL1145408, “Substituted E-3-(2-chloro-3-indolylmethylene)1,3-dihydroindol-2-ones with antitumor activity. Effect on the cell cycle and apoptosis” (2007).
Counter-ions that a name gives are not always drawn. Active and inactive are the calls of the source. No cut-off for these calls is given here.

Tests used:
Caspase-3 (Homo sapiens) = target: T1, Caspase-3 (Homo sapiens) (UniProt P42574); experiment: Activation of caspase 3 activity in IGROV1 cells assessed as DEVD peptide hydrolysis at 5 uM after 24 hrs; type: cell-based; conditions: IGROV-1
T1 sequence (whole entry): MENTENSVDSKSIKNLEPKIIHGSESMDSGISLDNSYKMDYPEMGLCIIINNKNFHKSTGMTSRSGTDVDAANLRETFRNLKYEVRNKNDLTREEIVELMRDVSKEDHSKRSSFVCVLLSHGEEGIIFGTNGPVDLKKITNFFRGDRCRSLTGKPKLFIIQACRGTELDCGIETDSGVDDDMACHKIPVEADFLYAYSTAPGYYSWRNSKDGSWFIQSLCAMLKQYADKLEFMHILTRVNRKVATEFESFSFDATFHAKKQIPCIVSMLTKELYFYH

Caspase-7 (Homo sapiens) = target: T2, Caspase-7 (Homo sapiens) (UniProt P55210); experiment: Activation of caspase 7 activity in IGROV1 cells assessed as DEVD peptide hydrolysis at 5 uM after 24 hrs; type: cell-based; conditions: IGROV-1
T2 sequence (whole entry): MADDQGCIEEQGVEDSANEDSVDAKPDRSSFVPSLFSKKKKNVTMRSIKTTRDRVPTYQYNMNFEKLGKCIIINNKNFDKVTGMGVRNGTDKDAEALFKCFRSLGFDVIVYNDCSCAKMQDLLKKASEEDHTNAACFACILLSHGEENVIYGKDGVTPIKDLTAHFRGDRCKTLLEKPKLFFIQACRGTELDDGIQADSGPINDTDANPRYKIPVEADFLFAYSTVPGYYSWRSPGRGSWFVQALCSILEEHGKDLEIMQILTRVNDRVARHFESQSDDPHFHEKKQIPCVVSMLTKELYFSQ

[1] = Antitumor activity against ovarian tumor cells; type: functional; conditions: Homo sapiens; for TGI: read-out: pTGI (converted)
[2] = Antitumor activity against prostate tumor cells; type: functional; conditions: Homo sapiens; for CC50: read-out: Log LC50 (the source's name) (converted); for TGI: read-out: pTGI (converted)
[3] = Antitumor activity against breast tumor cells; type: functional; conditions: Homo sapiens; for TGI: read-out: pTGI (converted)
[4] = Antitumor activity against renal tumor cells; type: functional; conditions: Homo sapiens; for TGI: read-out: pTGI (converted)
[5] = Antitumor activity against melanoma cells; type: functional; conditions: Homo sapiens, Melanoma cell; for CC50: read-out: Log LC50 (the source's name) (converted); for TGI: read-out: pTGI (converted)
[6] = Antitumor activity against colon tumor cells; type: functional; conditions: Homo sapiens; for TGI: read-out: pTGI (converted)
NSCLC = experiment: Antitumor activity against NSCLC cells; type: functional; conditions: Homo sapiens; for TGI: read-out: pTGI (converted)
[7] = Antitumor activity against CNS tumor cells; type: functional; conditions: Homo sapiens; for TGI: read-out: pTGI (converted)
[8] = Antitumor activity against leukemia cells; type: functional; conditions: Homo sapiens, Leukemia cell; for TGI: read-out: pTGI (converted)

In the case of COc1cc2c(/C=C3/C(=O)Nc4ccc(F)cc43)c(Cl)[nH]c2cc1C, the Activity (Caspase-3 (Homo sapiens)) is reported as “Active” and the Activity (Caspase-7 (Homo sapiens)) is reported as “Active”.

With COc1cc2c(/C=C3/C(=O)Nc4ccc(Cl)cc43)c(Cl)n(Cc3ccc(Cl)cc3)c2cc1C the Activity (Caspase-3 (Homo sapiens)) was “Active” and the Activity (Caspase-7 (Homo sapiens)) was “Active”.

In the case of COc1cc2c(/C=C3/C(=O)Nc4ccc(Cl)cc43)c(Cl)n(C)c2cc1C, the Activity (Caspase-3 (Homo sapiens)) is reported as “Active” and the Activity (Caspase-7 (Homo sapiens)) is reported as “Active”.

With COc1cc2c(/C=C3/C(=O)Nc4ccc(O)cc43)c(Cl)n(C)c2cc1C the Activity (Caspase-3 (Homo sapiens)) was “Active” and the Activity (Caspase-7 (Homo sapiens)) was “Active”.

With COc1cc2c(/C=C3/C(=O)Nc4cc(C)c(O)cc43)c(Cl)n(Cc3ccc(Cl)cc3)c2cc1C the Activity (Caspase-3 (Homo sapiens)) was “Active” and the Activity (Caspase-7 (Homo sapiens)) was “Active”.

For COc1cc2c(/C=C3/C(=O)Nc4ccc(O)cc43)c(Cl)n(Cc3ccc(Cl)cc3)c2cc1C, the Activity (Caspase-3 (Homo sapiens)) was “Active” and the Activity (Caspase-7 (Homo sapiens)) was “Active”.

For COc1cc2c(/C=C3/C(=O)Nc4cccc(Cl)c43)c(Cl)n(Cc3ccc(Cl)cc3)c2cc1C, the Activity (Caspase-3 (Homo sapiens)) was “Active” and the Activity (Caspase-7 (Homo sapiens)) was “Active”.

In the case of COc1cc2c(/C=C3/C(=O)Nc4ccc(F)cc43)c(Cl)n(Cc3ccccc3)c2cc1C, the Activity (Caspase-3 (Homo sapiens)) is reported as “Active” and the Activity (Caspase-7 (Homo sapiens)) is reported as “Active”.

Work on COc1cc2c(/C=C3/C(=O)Nc4c3ccc3ccccc43)c(Cl)n(C)c2cc1C yielded a GI50 [1] of 35.5 nM, an LC50 [1] of 22.9 µM and a TGI [1] of 562 nM. The GI50 [2] was 562 nM, the CC50 [2] was 25.7 µM and the TGI [2] was 2.45 µM. It also gave a GI50 [3] of 46.8 nM, an LC50 [3] of 13.8 µM and a TGI [3] of 3.02 µM. It also gave a GI50 [4] of 72.4 nM, an LC50 [4] of 22.4 µM and a TGI [4] of 2.63 µM. For the same compound, the GI50 [5] was 53.7 nM, the CC50 [5] was 36.3 µM and the TGI [5] was 6.61 µM. The GI50 [6] was 77.6 nM, the LC50 [6] was 5.13 µM and the TGI [6] was 0.129 µM. The GI50 (NSCLC) was 30.9 nM, the LC50 (NSCLC) was 50.1 µM and the TGI (NSCLC) was 4.79 µM. The GI50 [7] was 115 nM, the LC50 [7] was 30.9 µM and the TGI [7] was 1620 nM. For the same compound, the Activity (Caspase-3 (Homo sapiens)) was “Active”, the Activity (Caspase-7 (Homo sapiens)) was “Active” and the GI50 [8] was 17.4 nM. It also gave a TGI [8] of 501 nM.

For COc1cc2c(/C=C3/C(=O)Nc4ccccc43)c(Cl)n(C)c2cc1C, the Activity (Caspase-3 (Homo sapiens)) was “Active” and the Activity (Caspase-7 (Homo sapiens)) was “Active”.

In the case of COc1cc2c(/C=C3/C(=O)Nc4ccc(F)cc43)c(Cl)n(C)c2cc1C, the Activity (Caspase-3 (Homo sapiens)) is reported as “Active” and the Activity (Caspase-7 (Homo sapiens)) is reported as “Active”.

In the case of COc1cc2c(/C=C3/C(=O)Nc4c3ccc3ccccc43)c(Cl)[nH]c2cc1C, the GI50 [1] is reported as 12 nM, the LC50 [1] is reported as 47.9 µM and the TGI [1] is reported as 708 nM. It also gave a GI50 [2] of 17 nM, a CC50 [2] of 50.1 µM and a TGI [2] of 50.1 µM. It also gave a GI50 [3] of 39.8 nM, an LC50 [3] of 50.1 µM and a TGI [3] of 2.04 µM. The GI50 [4] was 89.1 nM, the LC50 [4] was 50.1 µM and the TGI [4] was 30.9 µM. The GI50 [5] was 10 nM, the CC50 [5] was 40.7 µM and the TGI [5] was 3.55 µM. The GI50 [6] was 17 nM, the LC50 [6] was 50.1 µM and the TGI [6] was 3.72 µM. It also gave a GI50 (NSCLC) of 102 nM, an LC50 (NSCLC) of 49 µM and a TGI (NSCLC) of 4.27 µM. The GI50 [7] was 13.5 nM, the LC50 [7] was 50.1 µM and the TGI [7] was 794 nM. For the same compound, the Activity (Caspase-3 (Homo sapiens)) was “Active”, the Activity (Caspase-7 (Homo sapiens)) was “Active” and the GI50 [8] was 10.2 nM. For the same compound, the TGI [8] was 537 nM.

CC[C@]1(O)C[C@H]2CN(CCc3c([nH]c4ccccc34)[C@@](C(=O)OC)(c3cc4c(cc3OC)N(C=O)[C@H]3[C@@](O)(C(=O)OC)[C@H](OC(C)=O)[C@]5(CC)C=CCN6CC[C@]43[C@@H]65)C2)C1 [VINCRISTINE SULFATE] showed a GI50 [1] of 316 nM, a TGI [1] of 20000 nM and a GI50 [2] of 126 nM. For the same compound, the CC50 [2] was 316 µM, the TGI [2] was 6.31 µM and the GI50 [3] was 316 nM. It also gave a TGI [3] of 7.94 µM, a GI50 [4] of 316 nM and a TGI [4] of 20 µM. It also gave a GI50 [5] of 158 nM, a CC50 [5] of 251 µM and a TGI [5] of 7.94 µM. For the same compound, the GI50 [6] was 100 nM, the TGI [6] was 3.98 µM and the GI50 (NSCLC) was 251 nM. For the same compound, the TGI (NSCLC) was 15.8 µM, the GI50 [7] was 126 nM and the TGI [7] was 6310 nM. The GI50 [8] was 100 nM and the TGI [8] was 15800 nM.

For COc1cc2c(/C=C3/C(=O)Nc4cccc(Cl)c43)c(Cl)n(C)c2cc1C, the Activity (Caspase-3 (Homo sapiens)) was “Active” and the Activity (Caspase-7 (Homo sapiens)) was “Active”.

With COc1cc2c(/C=C3/C(=O)Nc4cc(C)c(O)cc43)c(Cl)n(C)c2cc1C the Activity (Caspase-3 (Homo sapiens)) was “Active” and the Activity (Caspase-7 (Homo sapiens)) was “Active”.
